The experiment has as its system Staphylococcus aureus (ATCC #27660). The experiment can be described thus: Rapid Germicidal Time Kill, ASTM protocol 04-123409-106. Format: cell-based. The conditions noted are these: for log reduction of organisms: nitrile gloves, versus applied organisms estimated from latex control. The procedure:
To test the antimicrobial efficacy of a polyhexamethylene biguanide, such as available commercially under the trademark Cosmosil® CQ from Arch Chemicals, Inc., Norwalk, Conn., we treated nitrile examination gloves according to ASTM protocol 04-123409-106 “Rapid Germicidal Time Kill.” Briefly, about 50 μL of an overnight culture of Staphylococcus aureus (ATCC #27660, 5×10^8CFU/mL) was applied to the glove material. After a total contact time of about 6 minutes the glove fabric was placed into a neutralizing buffer. Surviving organisms were extracted and diluted in Letheen broth. Aliquots were spread plated on Tryptic Soy Agar plates. Plates were incubated for 48 hours at 35° C. Following incubation the surviving organisms were counted and the colony forming units (CFU) were recorded. The reduction (log10) in surviving organisms from test material versus control fabric was calculated:
Log10 CFU/swatch Control−Log10 CFU/swatch Test Article=Log10 Reduction.

polyhexamethylene biguanide: the “log reduction of Staphylococcus aureus” value (microtextured nitrile glove, machine applied at 0.03 g/glove) was “greater than four”. For the same substance, the “log reduction of organisms” value is recorded as “greater than one” (hand sprayed with no heat) and “greater than 5 log” (machine sprayed under heated conditions).

The values above are taken from patent US20060140994A1, “Application of an antimicrobial agent on an elastomeric article” (priority 2004, published 2006).
